Patent US10519134B2, “Pyrazole compounds and methods of making and using same” (Lundbeck La Jolla Research Center, Inc., priority 2015, dated 2019)

Legend:
[1] = target: T1, FAAH (Mus musculus, UniProt O08914); assay: In vitro competitive activity-based protein profiling (mouse), FAAH gel band; format: biochemical; settings: for IC50: mouse; for inhibition at 1 µM: read-out: FAAH % inh. 1 μM
T1 construct: Proteomes (mouse brain membrane fraction or cell lysates); from tissue; host or cells: mouse brain membrane fraction (or cell lysates)
T1 sequence (O08914 1-579): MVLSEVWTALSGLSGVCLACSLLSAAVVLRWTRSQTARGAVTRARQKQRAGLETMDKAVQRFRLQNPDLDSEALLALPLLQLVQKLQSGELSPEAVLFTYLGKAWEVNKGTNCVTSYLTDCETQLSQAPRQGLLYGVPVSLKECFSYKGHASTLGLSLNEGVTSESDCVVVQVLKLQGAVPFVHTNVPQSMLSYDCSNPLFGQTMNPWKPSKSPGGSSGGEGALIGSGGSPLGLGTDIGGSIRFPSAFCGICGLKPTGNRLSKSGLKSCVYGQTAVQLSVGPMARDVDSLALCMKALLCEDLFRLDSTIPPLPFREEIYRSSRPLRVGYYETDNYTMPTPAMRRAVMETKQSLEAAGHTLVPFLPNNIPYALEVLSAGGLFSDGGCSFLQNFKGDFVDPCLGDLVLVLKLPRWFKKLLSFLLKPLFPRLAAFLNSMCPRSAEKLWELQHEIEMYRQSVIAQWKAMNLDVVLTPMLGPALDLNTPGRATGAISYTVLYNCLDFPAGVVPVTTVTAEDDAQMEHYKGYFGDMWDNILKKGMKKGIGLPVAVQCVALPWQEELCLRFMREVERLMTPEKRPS
In short: (§1)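 Mouse brain membrane proteome or cell lysate (1.0 mg/mL protein) preincubated 30 min at 37 °C with varying inhibitor concentrations, then labelled 30 min at 37 °C with FP-Rh or HT-01 probe (50 μM stock). After SDS-PAGE, activity taken from fluorescent intensity of the MAGL and FAAH gel bands.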

[2] = target: T2, MAGL (Mus musculus, UniProt O35678); assay: In vitro competitive activity-based protein profiling (mouse), MAGL gel band; format: biochemical; settings: for IC50: mouse; for inhibition at 1 µM: read-out: MAGL % inh. 1 μM
T2 construct: Proteomes (mouse brain membrane fraction or cell lysates); from tissue; host or cells: mouse brain membrane fraction (or cell lysates)
T2 sequence (O35678 1-303): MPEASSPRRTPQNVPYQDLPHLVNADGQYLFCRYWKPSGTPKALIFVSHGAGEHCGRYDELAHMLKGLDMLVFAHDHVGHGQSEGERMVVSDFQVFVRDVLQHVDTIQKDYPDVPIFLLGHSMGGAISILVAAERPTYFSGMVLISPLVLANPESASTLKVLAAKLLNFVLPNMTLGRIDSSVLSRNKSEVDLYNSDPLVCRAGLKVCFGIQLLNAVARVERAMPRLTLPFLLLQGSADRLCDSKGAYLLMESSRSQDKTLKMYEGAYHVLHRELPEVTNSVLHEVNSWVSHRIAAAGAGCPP
In short: as §1

Structure (SMILES)	IC50 [1]	inhibition at 1 µM [1]	IC50 [2]	inhibition at 1 µM [2]
CC(C)S(=O)(=O)Nc1ccn(C(=O)N2CCN(Cc3ccc(C(F)(F)F)cc3N3CCCC3)CC2)n1 [Example 134, N-(1-(4-(2-(pyrrolidin-1-yl)-4-(trifluoromethyl)benzyl)piperazine-1-carbonyl)-1H-pyrazol-3-yl)propane-2-sulfonamide]	1000 to 10000 nM	0 to 25%	1000 to 10000 nM	25 to 50%
CC(=O)NC1CCN(c2cc(CN3CCN(C(=O)n4ccc(NS(C)(=O)=O)n4)CC3)ccc2C(F)(F)F)CC1 [Example 279, N-(1-(5-((4-(3-(methylsulfonamido)-1H-pyrazole-1-carbonyl)piperazin-1-yl)methyl)-2-(trifluoromethyl)phenyl)piperidin-4-yl)acetamide]	–	0 to 25%	–	≥ 75%
CC(=O)Nc1ccn(C(=O)N2CCN(Cc3ccc(C(F)(F)F)cc3N3CCC(F)(F)CC3)CC2)n1 [Example 46, N-(1-(4-(2-(4,4-difluoropiperidin-1-yl)-4-(trifluoromethyl)benzyl)piperazine-1-carbonyl)-1H-pyrazol-3-yl)acetamide]	1000 to 10000 nM	0 to 25%	≤ 100 nM	≥ 75%
CS(=O)(=O)Nc1ccn(C(=O)N2CCN(Cc3ccc(C(F)(F)F)c(N4CCCC4)c3)CC2)n1 [Example 153, N-(1-(4-(3-(pyrrolidin-1-yl)-4-(trifluoromethyl)benzyl)piperazine-1-carbonyl)-1H-pyrazol-3-yl) methanesulfonamide]	–	0 to 25%	–	≥ 75%
CS(=O)(=O)Nc1ccn(C(=O)N2CCN(Cc3cc(Cl)ccc3N3CCCC3)CC2)n1 [Example 179, N-(1-(4-(5-chloro-2-(pyrrolidin-1-yl)benzyl)piperazine-1-carbonyl)-1H-pyrazol-3-yl) methanesulfonamide]	–	0 to 25%	–	≥ 75%
CS(=O)(=O)Nc1ccn(C(=O)N2CCC3(CCCN3Cc3cc(N4CCC(C(=O)O)CC4)cc(C(F)(F)F)c3)CC2)n1 [Example 246, 1-(3-((8-(3-(methylsulfonamido)-1H-pyrazole-1-carbonyl)-1,8-diazaspiro[4.5]decan-1-yl)methyl)-5-(trifluoromethyl)phenyl) piperidine-4-carboxylic acid]	–	0 to 25%	–	0 to 25%
CS(=O)(=O)Nc1ccn(C(=O)N2CCC3(CCCN3Cc3cccc(N4CCCC4)c3Cl)CC2)n1 [Example 141, N-(1-(1-(2-chloro-3-(pyrrolidin-1-yl)benzyl)-1,8-diazaspiro[4.5]decane-8-carbonyl)-1H-pyrazol-3-yl) methanesulfonamide]	1000 to 10000 nM	0 to 25%	100 to 1000 nM	≥ 75%
CS(=O)(=O)Nc1ccn(C(=O)N2CCN(Cc3ccc(C(F)(F)F)c(N4CCN(CC(=O)O)CC4)c3)CC2)n1 [Example 281, 2-(4-(5-((4-(3-(methylsulfonamido)-1H-pyrazole-1-carbonyl)piperazin-1-yl)methyl)-2-(trifluoromethyl)phenyl)piperazin-1-yl)acetic acid]	–	0 to 25%	–	0 to 25%
CS(=O)(=O)Nc1ccn(C(=O)N2CCC3(CCCN3Cc3ccc(C(F)(F)F)cc3N3CCC(C(=O)O)C3)CC2)n1 (centres unmarked) [Example 245, 1-(2-((8-(3-(methylsulfonamido)-1H-pyrazole-1-carbonyl)-1,8-diazaspiro[4.5]decan-1-yl)methyl)-5-(trifluoromethyl)phenyl) pyrrolidine-3-carboxylic acid]	–	0 to 25%	–	0 to 25%
CC(=O)Nc1ccn(C(=O)N2CCN(Cc3ccc(C(F)(F)F)cc3N3CCC(O)CC3)CC2)n1 [Example 276, N-(1-(4-(2-(4-hydroxypiperidin-1-yl)-4-(trifluoromethyl)benzyl)piperazine-1-carbonyl)-1H-pyrazol-3-yl)acetamide]	–	0 to 25%	–	≥ 75%
CC(=O)Nc1ccn(C(=O)N2CCC3(CCCN3Cc3ccc(C(F)(F)F)cc3N3CCN(C4CC4)CC3)CC2)n1 [Example 30, N-(1-(1-(2-(4-cyclopropylpiperazin-1-yl)-4-(trifluoromethyl)benzyl)-1,8-diazaspiro[4.5]decane-8-carbonyl)-1H-pyrazol-3-yl)acetamide]	1000 to 10000 nM	0 to 25%	100 to 1000 nM	≥ 75%
CS(=O)(=O)Nc1ccn(C(=O)N2CCN(Cc3ccc(N4CCC(C(=O)O)CC4)c(C(F)(F)F)c3)CC2)n1 [Example 169, 1-(4-((4-(3-(methylsulfonamido)-1H-pyrazole-1-carbonyl)piperazin-1-yl)methyl)-2-(trifluoromethyl)phenyl)piperidine-4-carboxylic acid]	–	0 to 25%	–	0 to 25%
CC(=O)Nc1ccn(C(=O)N2CCC3(CCCN3Cc3ccc(C(F)(F)F)cc3N3CCC4(C3)CN(S(C)(=O)=O)C4)CC2)n1 [Example 27, N-(1-(1-(2-(2-(methylsulfonyl)-2,6-diazaspiro[3.4]octan-6-yl)-4-(trifluoromethyl)benzyl)-1,8-diazaspiro[4.5]decane-8-carbonyl)-1H-pyrazol-3-yl)acetamide]	1000 to 10000 nM	0 to 25%	≤ 100 nM	≥ 75%
CS(=O)(=O)Nc1ccn(C(=O)N2CCN(Cc3ccc(Cl)c(N4CCN(S(C)(=O)=O)CC4)c3)CC2)n1 [Example 282, N-(1-(4-(4-chloro-3-(4-(methylsulfonyl)piperazin-1-yl)benzyl)piperazine-1-carbonyl)-1H-pyrazol-3-yl) methanesulfonamide]	–	0 to 25%	–	≥ 75%
Cc1c(CN2CCCC23CCN(C(=O)n2ccc(NS(C)(=O)=O)n2)CC3)cccc1N1CCOCC1 [Example 226, N-(1-(1-(2-methyl-3-morpholinobenzyl)-1,8-diazaspiro[4.5]decane-8-carbonyl)-1H-pyrazol-3-yl) methanesulfonamide]	–	0 to 25%	–	0 to 25%
CC(=O)Nc1ccn(C(=O)N2CCC3(CCCN3Cc3ccc(Cl)cc3N3CCOCC3)CC2)n1 [Example 16, N-(1-(1-(4-chloro-2-morpholinobenzyl)-1,8-diazaspiro[4.5]decane-8-carbonyl)-1H-pyrazol-3-yl)acetamide]	1000 to 10000 nM	0 to 25%	100 to 1000 nM	≥ 75%
CS(=O)(=O)Nc1ccn(C(=O)N2CCN(Cc3ccc(C(F)(F)F)c(Cl)c3)CC2)n1 [Example 154, N-(1-(4-(3-chloro-4-(trifluoromethyl)benzyl)piperazine-1-carbonyl)-1H-pyrazol-3-yl) methanesulfonamide]	–	0 to 25%	–	≥ 75%
CS(=O)(=O)Nc1ccn(C(=O)N2CCN(Cc3ccc(Cl)c(N4CCC(C(N)=O)CC4)c3)CC2)n1 [Example 249, 1-(2-chloro-5-((4-(3-(methylsulfonamido)-1H-pyrazole-1-carbonyl)piperazin-1-yl)methyl)phenyl) piperidine-4-carboxamide]	–	0 to 25%	–	0 to 25%
CC(=O)Nc1ccn(C(=O)N2CCC3(CCCN3Cc3ccc(Cl)cc3N3CCN(S(C)(=O)=O)CC3)CC2)n1 [Example 35, N-(1-(1-(4-chloro-2-(4-(methylsulfonyl)piperazin-1-yl)benzyl)-1,8-diazaspiro[4.5]decane-8-carbonyl)-1H-pyrazol-3-yl)acetamide]	1000 to 10000 nM	0 to 25%	100 to 1000 nM	≥ 75%
CC(=O)Nc1ccn(C(=O)N2CCC3(CCCN3Cc3ccc4c(c3)COC4)CC2)n1 [Example 97, N-(1-(1-((1,3-dihydroisobenzofuran-5-yl)methyl)-1,8-diazaspiro[4.5]decane-8-carbonyl)-1H-pyrazol-3-yl)acetamide]	1000 to 10000 nM	0 to 25%	100 to 1000 nM	≥ 75%
O=C(CO)Nc1ccn(C(=O)N2CCN(Cc3ccc(Cl)cc3)CC2)n1 [Example 91, N-(1-(4-(4-chlorobenzyl)piperazine-1-carbonyl)-1H-pyrazol-3-yl)-2-hydroxyacetamide]	–	0 to 25%	–	≥ 75%
CCN1CCN(c2cc(Cl)ccc2CN2CCCC23CCN(C(=O)n2ccc(NC(C)=O)n2)CC3)CC1 [Example 15, N-(1-(1-(4-chloro-2-(4-ethylpiperazin-1-yl)benzyl)-1,8-diazaspiro[4.5]decane-8-carbonyl)-1H-pyrazol-3-yl)acetamide]	1000 to 10000 nM	0 to 25%	100 to 1000 nM	≥ 75%
